Source: patent US10669272B2, “Substituted naphthyridinone compounds useful as T cell activators” (BRISTOL-MYERS SQUIBB COMPANY, priority 2018, dated 2020)
pEC50, pIC50: −log10 of the molar value. Read-outs that look alike come from different tables or passages of the source.

Columns and labels:
Human venous whole blood = experiment: Human whole blood IFN-γ assay; assay type: cell-based; details: human whole blood, normalized to 3 μM reference compound with anti-CD3 plus anti-CD28 as 100% activation, read-out: INFg Whole Blood Normalized Agonist EC50;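 further: blood from healthy donors exposed to compound for 1 h before stimulation with anti-CD3 and anti-CD28 at 1 µg/mL each, IFN-γ quantified in supernatant by AlphaLISA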
human DGKα = molecular target: T1, human DGKα (Homo sapiens, UniProt P23743); experiment: DGKα LIPGLO assay (extruded liposome substrate), in vitro DGK inhibition; assay type: biochemical; details: liposome (LIPGLO) assay; read-out: DGKa LIPGLO IC50
T1 construct: TVMV protease cleavage site (C); Hexa-His (C); made in house; host or cells: Sf9 insect cells (baculovirus, Bac-to-Bac)

human DGKζ = molecular target: T2, human DGKζ (Homo sapiens, UniProt Q13574); experiment: DGKζ LIPGLO assay (extruded liposome substrate), in vitro DGK inhibition; assay type: biochemical; details: liposome (LIPGLO) assay; read-out: DGKz LIPGLO IC50
T2 construct: TVMV protease cleavage site (C); Hexa-His (C); made in house; host or cells: Sf9 insect cells (baculovirus, Bac-to-Bac)
T2 sequence (Q13574 with tags, fused parts or gaps isoform Q13574-4): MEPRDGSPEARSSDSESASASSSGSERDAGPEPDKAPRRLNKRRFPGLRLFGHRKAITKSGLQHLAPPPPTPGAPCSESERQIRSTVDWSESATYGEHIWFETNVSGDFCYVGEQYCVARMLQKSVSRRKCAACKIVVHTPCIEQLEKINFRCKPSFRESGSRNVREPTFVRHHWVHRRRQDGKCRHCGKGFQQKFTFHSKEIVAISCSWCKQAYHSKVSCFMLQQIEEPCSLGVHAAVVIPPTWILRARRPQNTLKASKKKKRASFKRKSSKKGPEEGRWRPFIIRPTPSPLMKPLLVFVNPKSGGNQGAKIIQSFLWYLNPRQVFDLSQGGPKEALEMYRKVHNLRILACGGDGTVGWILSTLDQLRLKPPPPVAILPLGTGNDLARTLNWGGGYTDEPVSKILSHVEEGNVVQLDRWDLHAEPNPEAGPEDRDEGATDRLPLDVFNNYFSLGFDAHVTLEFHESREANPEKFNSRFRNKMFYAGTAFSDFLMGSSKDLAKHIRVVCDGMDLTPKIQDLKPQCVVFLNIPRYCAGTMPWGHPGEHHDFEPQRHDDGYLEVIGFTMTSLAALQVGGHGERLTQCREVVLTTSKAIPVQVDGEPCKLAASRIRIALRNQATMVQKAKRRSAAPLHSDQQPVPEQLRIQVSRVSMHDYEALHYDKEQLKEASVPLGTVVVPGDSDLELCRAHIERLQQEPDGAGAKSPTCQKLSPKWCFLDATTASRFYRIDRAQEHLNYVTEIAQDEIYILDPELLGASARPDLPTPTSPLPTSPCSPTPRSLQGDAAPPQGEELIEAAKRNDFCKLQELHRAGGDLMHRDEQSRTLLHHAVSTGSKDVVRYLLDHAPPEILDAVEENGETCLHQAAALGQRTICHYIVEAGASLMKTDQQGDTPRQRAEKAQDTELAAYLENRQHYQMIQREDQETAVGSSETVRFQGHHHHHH

T1 sequence (P23743 with tags, fused parts or gaps): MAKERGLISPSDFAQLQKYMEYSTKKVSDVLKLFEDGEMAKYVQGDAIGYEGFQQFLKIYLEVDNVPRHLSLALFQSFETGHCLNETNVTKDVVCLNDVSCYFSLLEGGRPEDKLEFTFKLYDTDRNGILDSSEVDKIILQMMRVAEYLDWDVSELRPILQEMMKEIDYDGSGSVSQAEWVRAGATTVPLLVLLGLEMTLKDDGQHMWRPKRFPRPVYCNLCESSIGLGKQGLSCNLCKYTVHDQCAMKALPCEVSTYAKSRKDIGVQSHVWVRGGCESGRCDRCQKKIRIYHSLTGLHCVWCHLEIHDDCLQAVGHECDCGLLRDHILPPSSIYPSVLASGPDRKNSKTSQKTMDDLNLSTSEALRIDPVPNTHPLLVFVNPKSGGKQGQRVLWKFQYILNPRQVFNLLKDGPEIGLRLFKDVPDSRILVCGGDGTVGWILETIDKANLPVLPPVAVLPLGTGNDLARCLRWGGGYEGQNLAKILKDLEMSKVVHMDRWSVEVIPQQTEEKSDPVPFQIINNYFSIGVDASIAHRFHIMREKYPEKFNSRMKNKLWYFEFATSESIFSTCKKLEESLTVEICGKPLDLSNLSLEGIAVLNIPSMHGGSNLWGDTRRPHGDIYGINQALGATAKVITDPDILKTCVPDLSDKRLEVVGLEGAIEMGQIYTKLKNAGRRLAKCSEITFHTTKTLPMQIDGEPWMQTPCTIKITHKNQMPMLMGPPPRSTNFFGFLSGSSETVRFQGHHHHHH

Row | pIC50 (human DGKα) | pIC50 (human DGKζ) | SMILES | pEC50 (Human venous whole blood) | pEC50 (Human venous whole blood; Homo sapiens, 24 h)
1 | 5.19 | 5.89 | COC[C@@H]1CN(c2cc(=O)n(C)c3ccc(C#N)nc23)[C@@H](C)CN1C(c1ccc(F)cc1)c1ccc(C#N)cc1 (single isomer, unassigned) [Example 1158] | 6.46 | 
2 | 6.44 | 6.89 | COC[C@@H]1CN(c2cc(=O)n(C)c3ccc(C#N)nc23)[C@@H](C)CN1C(C)c1ccc(F)cc1 (single isomer, unassigned) [Example 1159] |  | 6.52
3 | 5.82 | 5.77 | COC[C@@H]1CN(c2cc(=O)n(C)c3ccc(C#N)nc23)[C@@H](C)CN1C(C)c1ccc(F)cc1 (single isomer, unassigned) [Example 1160] |  | 5.96
4 | 6.12 | 6.77 | CC[C@H]1CN(C(c2ccc(F)cc2)c2ccc(C#N)cc2)[C@H](COC)CN1c1cc(=O)n(C)c2ccc(C#N)nc12 (single isomer, unassigned) [Example 1170] |  | 6.64
5 | 5.82 | 6.46 | CC[C@H]1CN(C(c2ccc(F)cc2)c2ccc(C#N)cc2)[C@H](COC)CN1c1cc(=O)n(C)c2ccc(C#N)nc12 (single isomer, unassigned) [Example 1171] | 6.77 | 
6 | 4.96 | 6.37 | C[C@@H]1CN(C(c2ccc(F)cc2)c2ccc(Cl)cc2)[C@@H](CO)CN1c1cc(=O)n(C)c2ccc(C#N)nc12 (single isomer, unassigned) [Example 1174] |  | 5.85
7 | 4.37 | 6.14 | CC(c1ccc(F)cc1)N1C[C@@H](C)N(c2cc(=O)n(C)c3ccc(C#N)nc23)C[C@@H]1CO (single isomer, unassigned) [Example 1178] | 5.51 | 
8 | < 3.60 | 6.07 | CC(c1ccc(F)cc1)N1C[C@@H](C)N(c2cc(=O)n(C)c3ccc(C#N)nc23)C[C@@H]1CO (single isomer, unassigned) [Example 1179] | 4.70 | 
9 | 4.09 | 5.62 | Cn1c(=O)cc(N2CCN(Cc3ccc(F)cc3Cl)C(COC(F)F)C2)c2nc(C#N)ccc21 (single isomer, unassigned) [Example 1185, 8-(4-(2-chloro-4-fluorobenzyl)-3-((difluoromethoxy)methyl)piperazin-1-yl)-5-methyl-6-oxo-5,6-dihydro-1,5-naphthyridine-2-carbonitrile] |  | 5.37
10 | 6.09 | 5.59 | C[C@@H]1CN(c2cc(=O)n(C)c3ccc(C#N)nc23)[C@@H](C)CN1C(COC(F)F)c1ccc(F)cc1 (single isomer, unassigned) [Example 1189] |  | 5.92
11 | 6.00 | 5.96 | CCC(c1ccc(OC(F)(F)F)cc1)N1C[C@H](C)N(c2cc(=O)n(C)c3ccc(C#N)nc23)C[C@H]1CC (single isomer, unassigned) [Example 1198] | 5.77 | 
12 | 7.70 | 7.43 | CCC(c1ccc(OC(F)(F)F)cc1)N1C[C@H](C)N(c2cc(=O)n(C)c3ccc(C#N)nc23)C[C@H]1CC (single isomer, unassigned) [Example 1199] | 7.47 | 
13 | 6.60 | 7.28 | CC(c1ccc(C2CC2)cc1F)N1C[C@H](C)N(c2cc(=O)n(C)c3ccc(C#N)nc23)C[C@H]1C (single isomer, unassigned) [Example 1200] |  | 6.64
14 | 4.89 | 5.47 | CC(c1ccc(C2CC2)cc1F)N1C[C@H](C)N(c2cc(=O)n(C)c3ccc(C#N)nc23)C[C@H]1C (single isomer, unassigned) [Example 1201] |  | 5.25
15 | 6.92 | 6.33 | CC(c1ccc(OC(F)(F)F)c(F)c1)N1C[C@H](C)N(c2cc(=O)n(C)c3ccc(C#N)nc23)C[C@H]1C (single isomer, unassigned) [Example 1204] | 6.27 | 
16 | 5.77 | 5.57 | CC(c1ccc(OC(F)(F)F)c(F)c1)N1C[C@H](C)N(c2cc(=O)n(C)c3ccc(C#N)nc23)C[C@H]1C (single isomer, unassigned) [Example 1205] | 5.10 | 
17 | 5.96 | 7.43 | CC(c1cccc(OC(F)(F)F)c1F)N1C[C@H](C)N(c2cc(=O)n(C)c3ccc(C#N)nc23)C[C@H]1C (single isomer, unassigned) [Example 1208] | 6.00 | 
18 | 4.70 | 5.92 | CC(c1cccc(OC(F)(F)F)c1F)N1C[C@H](C)N(c2cc(=O)n(C)c3ccc(C#N)nc23)C[C@H]1C (single isomer, unassigned) [Example 1209] | 4.92 | 
19 | 5.03 | 7.74 | CC(c1cc(F)cc(OC(F)(F)F)c1)N1C[C@H](C)N(c2cc(=O)n(C)c3ccc(C#N)nc23)C[C@H]1C (single isomer, unassigned) [Example 1210] | 6.06 | 
20 | 4.89 | 6.17 | CC(c1cc(F)cc(OC(F)(F)F)c1)N1C[C@H](C)N(c2cc(=O)n(C)c3ccc(C#N)nc23)C[C@H]1C (single isomer, unassigned) [Example 1211] | 5.08 | 
21 | 4.64 | 6.96 | CC(c1ccccc1OC(F)(F)F)N1C[C@H](C)N(c2cc(=O)n(C)c3ccc(C#N)nc23)C[C@H]1C (single isomer, unassigned) [Example 1212] |  | 4.96
22 | 4.25 | 5.44 | CC(c1ccccc1OC(F)(F)F)N1C[C@H](C)N(c2cc(=O)n(C)c3ccc(C#N)nc23)C[C@H]1C (single isomer, unassigned) [Example 1213] | 5.08 | 

Second part, the compound before the results:

Row | SMILES | pIC50 (human DGKα) | pIC50 (human DGKζ) | pEC50 (Human venous whole blood) | pEC50 (Human venous whole blood; Homo sapiens, 24 h)
23 | CC[C@H]1CN(C(c2ccc(Cl)cc2)c2ccc(F)cn2)[C@H](C)CN1c1cc(=O)n(C)c2ccc(C#N)nc12 (single isomer, unassigned) [Example 1130] | 6.77 | 6.37 | 6.55 | 
24 | CC[C@H]1CN(C(c2ccc(F)cc2)c2ccc(C(F)(F)F)cn2)[C@H](C)CN1c1cc(=O)n(C)c2ccc(C#N)nc12 (single isomer, unassigned) [Example 1131] | 7.14 | 6.74 | 6.37 | 
25 | CC[C@H]1CN(C(c2ccc(F)cc2)c2ccc(C(F)(F)F)cn2)[C@H](C)CN1c1cc(=O)n(C)c2ccc(C#N)nc12 (single isomer, unassigned) [Example 1132] | 6.21 | 6.10 | 5.80 | 
26 | CC[C@H]1CN(C(c2ccc(F)cc2)c2cccc(C(F)(F)F)n2)[C@H](C)CN1c1cc(=O)n(C)c2ccc(C#N)nc12 (single isomer, unassigned) [Example 1133] | 5.80 | 6.89 |  | 6.24
27 | CC[C@H]1CN(C(c2ccc(F)cc2)c2cccc(C(F)(F)F)n2)[C@H](C)CN1c1cc(=O)n(C)c2ccc(C#N)nc12 (single isomer, unassigned) [Example 1134] | 6.44 | 6.89 | 6.47 | 
28 | CC[C@H]1CN(C(C)c2ccc(F)cc2)[C@H](C)CN1c1cc(=O)n(C)c2ccc(C#N)nc12 (single isomer, unassigned) [Example 1136] | 5.96 | 4.96 | 5.64 | 
29 | CC[C@H]1CN(C(C)c2ccc(F)cc2F)[C@H](C)CN1c1cc(=O)n(C)c2ccc(C#N)nc12 (single isomer, unassigned) [Example 1137] | 7.59 | 7.35 | 6.54 | 
30 | CC[C@H]1CN(C(C)c2ccc(F)cc2F)[C@H](C)CN1c1cc(=O)n(C)c2ccc(C#N)nc12 (single isomer, unassigned) [Example 1138] | 6.01 | 5.85 | 5.43 | 
31 | CC[C@H]1CN(C(C)c2ccc(F)c(F)c2)[C@H](C)CN1c1cc(=O)n(C)c2ccc(C#N)nc12 (single isomer, unassigned) [Example 1139] | 7.19 | 7.00 | 5.96 | 
32 | CC[C@H]1CN(C(C)c2ccc(F)c(F)c2)[C@H](C)CN1c1cc(=O)n(C)c2ccc(C#N)nc12 (single isomer, unassigned) [Example 1140] | 5.80 | 6.00 | 5.47 | 
33 | CC[C@H]1CN(C(C)c2ccc(OC(F)(F)F)cc2)[C@H](C)CN1c1cc(=O)n(C)c2ccc(C#N)nc12 (single isomer, unassigned) [Example 1141] | 8.08 | 6.43 | 6.33 | 
34 | CC[C@H]1CN(C(C)c2ccc(OC(F)(F)F)cc2)[C@H](C)CN1c1cc(=O)n(C)c2ccc(C#N)nc12 (single isomer, unassigned) [Example 1142] | 6.15 | 5.80 | 5.92 | 
35 | CC[C@H]1CN(C(C)c2ccc(C(F)(F)F)cc2)[C@H](C)CN1c1cc(=O)n(C)c2ccc(C#N)nc12 (single isomer, unassigned) [Example 1143] | 5.85 | 4.89 | 5.40 | 
36 | CC[C@H]1CN(C(C)c2ccc(C(F)(F)F)cc2)[C@H](C)CN1c1cc(=O)n(C)c2ccc(C#N)nc12 (single isomer, unassigned) [Example 1144] | 6.59 | 5.82 | 6.60 | 
37 | CC[C@H]1CN(C(C)c2ccc(OC(F)F)cc2)[C@H](C)CN1c1cc(=O)n(C)c2ccc(C#N)nc12 (single isomer, unassigned) [Example 1145] | 6.51 | 6.07 | 5.48 | 
38 | COC[C@@H]1CN(c2cc(=O)n(C)c3ccc(C#N)nc23)[C@@H](C)CN1C(c1ccc(F)cc1)c1ccc(C#N)cc1 (single isomer, unassigned) [Example 1157] | 5.38 | 6.15 |  | 6.57
